Read-outs that look alike come from different tables or passages of the source.
Experiments:
[1] = target: T1, C1r (Homo sapiens, UniProt P00736); test: anti-C1 esterase (C1r) activity (hydrolysis of AAME); format: biochemical; details: for IC50: AAME hydrolysis, read-out: ID50 C1r; for inhibition at 10 µM: at 1×10^-5 M, figure in parentheses, read-out: percent inhibition C1r
T1 sequence (P00736 464-705 limits assumed): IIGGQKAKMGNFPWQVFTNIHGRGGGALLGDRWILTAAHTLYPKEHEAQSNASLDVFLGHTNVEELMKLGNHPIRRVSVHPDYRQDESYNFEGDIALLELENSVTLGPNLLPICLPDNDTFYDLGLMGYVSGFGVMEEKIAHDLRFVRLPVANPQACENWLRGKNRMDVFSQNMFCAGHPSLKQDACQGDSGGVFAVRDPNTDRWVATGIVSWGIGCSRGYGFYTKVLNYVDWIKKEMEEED
T1 sequence (P00736 18-463 limits assumed): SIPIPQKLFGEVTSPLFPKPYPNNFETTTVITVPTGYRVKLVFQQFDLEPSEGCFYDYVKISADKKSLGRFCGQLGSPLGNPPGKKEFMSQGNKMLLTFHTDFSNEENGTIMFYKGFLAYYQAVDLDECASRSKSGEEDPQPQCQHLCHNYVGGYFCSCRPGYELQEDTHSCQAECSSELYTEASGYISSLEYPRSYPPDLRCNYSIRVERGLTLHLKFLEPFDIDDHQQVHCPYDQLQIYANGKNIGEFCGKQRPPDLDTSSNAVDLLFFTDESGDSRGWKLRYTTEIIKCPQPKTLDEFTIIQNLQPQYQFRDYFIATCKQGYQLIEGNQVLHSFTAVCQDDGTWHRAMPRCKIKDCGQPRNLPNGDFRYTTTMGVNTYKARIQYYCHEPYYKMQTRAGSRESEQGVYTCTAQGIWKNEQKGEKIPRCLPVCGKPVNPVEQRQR
Description: (§1) The anti-C1 esterase (C1r, C1s) activity was determined according to the method of Okamura et al. [K. Okamura, M. Muramatsu and B. Fujii, Biochem. Biophys. Acta, 295, 252-257 (1973)]. The inhibition of complement mediated hemolysis was determined according to the method of Baker et al. [B. R. Baker and E. H. Erickson, J. Med. Chem., 12, 408-414 (1969)]. The figures in Table 2 have the following meanings:
C1r: Molar concentration of the test compound which inhibits 50% of the ability of C1r to hydrolyse AAME (acetylarginin methyl ester) (ID50).

[2] = tested on: Kallikrein; test: anti-kallikrein activity (hydrolysis of TAME); format: biochemical; details: for IC50: TAME hydrolysis, read-out: ID50 Kallikrein; for percentage inhibition Kallikrein: at 1×10^-5 M, figure in parentheses
Description: (§2) The anti-trypsin, anti-plasmin, anti-kallikrein and anti-thrombin activities were determined according to the method of Muramatsu et al. [M. Muramatsu, T. Onishi, S. Makino, Y. Hayashi and S. Fujii, J. of Biochem., 58, 214 (1965)]. […] The compound No. corresponds to the compound number shown in Examples.

[3] = tested on: complement mediated hemolysis; test: inhibition of complement mediated hemolysis; format: cell-based
Description: The complement mediated hemolysis is widely used as a means to determine the titration of complement. The principle of this method is based on the fact that hemolysis is caused by the activation of complement, when the latter is added to a complex (immune complex) of erythrocytes and the antibody thereof. The degree of hemolysis varies in proportion to the amount of complement added. Therefore, when a known amount of complement admixed with a C1 esterase inhibitor is used, the hemolysis must be suppressed in proportion to the inhibitory activity.
as §1
Inhibition of complement mediated hemolysis (%): The inhibitory activity is shown in terms of percent inhibition of the compound at varied concentrations: […]

[4] = target: Plasmin (Homo sapiens, UniProt P00747); test: anti-plasmin activity (hydrolysis of TAME); format: biochemical; details: for IC50: TAME hydrolysis, read-out: ID50 Plasmin; for inhibition at 10 µM: at 1×10^-5 M, figure in parentheses, read-out: percentage inhibition Plasmin
Description: as §2

[5] = target: T2, Trypsin (Bos taurus, UniProt P00760); test: anti-trypsin activity (hydrolysis of TAME); format: biochemical; details: read-out: ID50 Trypsin
T2 sequence (P00760 24-246): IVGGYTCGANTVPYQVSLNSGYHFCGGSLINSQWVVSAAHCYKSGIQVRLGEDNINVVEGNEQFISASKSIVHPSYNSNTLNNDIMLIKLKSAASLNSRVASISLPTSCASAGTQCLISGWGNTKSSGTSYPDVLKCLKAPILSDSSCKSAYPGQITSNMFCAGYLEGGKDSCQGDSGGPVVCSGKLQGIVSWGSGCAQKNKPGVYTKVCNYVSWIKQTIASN
Description: as §2

[6] = tested on: Forssman shock; test: Forssman shock; format: in vivo; details: test compound 3 mg/kg before hemolysin i.v.; male Hartlay guinea pig; control death at 278, 318, 296 sec.
Description: Quite different from other animals, guinea pig has on the surface of its organs a specific antigen called Forssman antigen which specifically reacts with the antibody of sheep erythrocyte. Forssman shock is based on the above principle and is a shock caused by the administration of antibody of sheep erythrocyte to a guinea pig. The Forssman shock was investigated in detail by many researches and it was definitely shown that this shock is a model case where the complement plays the principal part and that the shock is associated with a classical pathway in which the complement system is activated progressively starting from C1. Since the participation of complement in autoimmune diseases has been established, the Forssman shock can be said to be a useful means for testing a drug for autoimmune diseases. A drug effective for the treatment of Forssman shock is useful as a drug of autoimmune diseases.
The experiment was performed according to the method of I. G. Offerness et al. [Biochem. Pharmacol., 27 (14), 1873-1878 (1978)]. Male Hartlay guinea pig of about 300 g in body weight was used. Each guinea pig of the control group was administered intravenously with hemolysin (minimum dose to cause the shock) (commercial hemolysin, 5,000 U as assayed by the method of Ogata) and the time elapsed until death was observed. […]

[7] = target: T3, C1s (Homo sapiens, UniProt P09871); test: anti-C1 esterase (C1s) activity (hydrolysis of ATEE); format: biochemical; details: for IC50: ATEE hydrolysis, read-out: ID50 C1s; for inhibition at 10 µM: at 1×10^-5 M, figure in parentheses, read-out: percent inhibition C1s
T3 sequence (P09871 438-688 limits assumed): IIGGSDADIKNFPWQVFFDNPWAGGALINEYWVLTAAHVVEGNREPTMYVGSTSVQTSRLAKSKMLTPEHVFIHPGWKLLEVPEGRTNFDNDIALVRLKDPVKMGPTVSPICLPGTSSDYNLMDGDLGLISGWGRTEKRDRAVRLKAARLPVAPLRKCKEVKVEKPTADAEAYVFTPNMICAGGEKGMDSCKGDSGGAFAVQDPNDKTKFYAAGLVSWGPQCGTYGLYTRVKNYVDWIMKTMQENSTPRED
T3 sequence (P09871 16-437 limits assumed): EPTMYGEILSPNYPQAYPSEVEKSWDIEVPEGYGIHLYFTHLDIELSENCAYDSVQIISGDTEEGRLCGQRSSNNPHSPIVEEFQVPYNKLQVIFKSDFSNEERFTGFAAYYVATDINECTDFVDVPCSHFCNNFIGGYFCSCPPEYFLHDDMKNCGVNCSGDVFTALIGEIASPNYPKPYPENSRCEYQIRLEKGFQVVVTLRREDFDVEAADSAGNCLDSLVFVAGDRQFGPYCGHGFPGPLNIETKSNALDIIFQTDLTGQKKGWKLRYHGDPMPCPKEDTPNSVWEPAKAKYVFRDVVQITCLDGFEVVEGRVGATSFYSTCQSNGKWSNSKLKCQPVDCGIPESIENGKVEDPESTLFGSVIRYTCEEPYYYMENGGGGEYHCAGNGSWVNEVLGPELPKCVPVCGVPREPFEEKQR
Description: as §1
C1s: Molar concentration of the test compound which inhibits 50% of the ability of C1s to hydrolyse ATEE (acetyltyrosin ethyl ester) (ID50).

[8] = Toxicity: median lethal dose (LD50); details: in vivo, mouse
[9] = target: Thrombin (Homo sapiens, UniProt P00734); test: biochemical; details: for IC50: read-out: ID50 Thrombin; for inhibition at 10 µM: at 1×10^-5 M, figure in parentheses, read-out: percentage inhibition Thrombin

Sequence of Plasmin (P00747 581-810 limits assumed, species assumed): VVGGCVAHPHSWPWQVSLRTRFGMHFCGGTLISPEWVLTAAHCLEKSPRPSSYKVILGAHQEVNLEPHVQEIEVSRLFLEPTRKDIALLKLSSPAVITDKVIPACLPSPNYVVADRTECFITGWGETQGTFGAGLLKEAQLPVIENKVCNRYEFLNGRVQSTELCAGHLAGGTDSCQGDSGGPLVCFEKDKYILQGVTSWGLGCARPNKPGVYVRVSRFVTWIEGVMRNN
Sequence of Plasmin (P00747 97-580 limits assumed, species assumed): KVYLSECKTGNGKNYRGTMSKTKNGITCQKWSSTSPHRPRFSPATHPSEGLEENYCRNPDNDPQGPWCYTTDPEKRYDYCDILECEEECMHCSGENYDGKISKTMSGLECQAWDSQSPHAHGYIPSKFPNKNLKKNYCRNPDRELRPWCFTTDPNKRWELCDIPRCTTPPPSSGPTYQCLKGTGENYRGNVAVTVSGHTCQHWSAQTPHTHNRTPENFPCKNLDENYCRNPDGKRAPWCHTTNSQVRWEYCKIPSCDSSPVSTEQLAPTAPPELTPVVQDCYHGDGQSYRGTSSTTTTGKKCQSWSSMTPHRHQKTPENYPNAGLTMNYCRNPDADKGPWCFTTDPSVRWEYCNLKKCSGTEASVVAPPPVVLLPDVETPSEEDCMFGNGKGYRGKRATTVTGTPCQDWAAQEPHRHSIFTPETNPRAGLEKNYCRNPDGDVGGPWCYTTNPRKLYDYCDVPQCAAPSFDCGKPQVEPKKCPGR

| IC50 [1] [nM] | IC50 [2] [nM] | IC50 [4] [nM] | IC50 [5] [nM] | IC50 [7] [nM] | IC50 ([9]; TAME hydrolysis) [nM] | inhibition at 10 µM [7] [%] | IC50 [9] [nM] | inhibition at 10 µM [1] [%] | inhibition at 10 µM [4] [%] | inhibition at 10 µM [9] [%] | SMILES | Inhibition of complement mediated hemolysis ([3]; 1 × 10^-4) [%] | Inhibition of complement mediated hemolysis ([3]; 1 × 10^-5) [%] | Inhibition of complement mediated hemolysis ([3]; 1 × 10^-6) [%] | Inhibition of complement mediated hemolysis ([3]; 1 × 10^-7) | time elapsed until death (survival) in Forssman shock [6] | LD50 ([8]; ip, I.P.) [mg/kg] | LD50 ([8]; po, P.O.) [mg/kg] | percentage inhibition Kallikrein [2] |
| --- | --- | --- | --- | --- | --- | --- | --- | --- | --- | --- | --- | --- | --- | --- | --- | --- | --- | --- | --- |
| 3000 | 5000 | 300 | 1000 | 400 | 7000 | – | – | – | – | – | N=C(N)c1ccc2cc(OC(=O)C=Cc3ccco3)ccc2c1 [compound 14] | 98 | 94 | 72 | 20% | – | – | – | – |
| 4000 | – | 3000 | 2000 | – | 7000 | < 10 | – | – | – | – | N=C(N)c1ccc2cc(OC(=O)c3cc4ccccc4o3)ccc2c1 [compound 16] | 100 | 99 | 99 | 98% | – | – | – | NE (the percentage inhibition is less than 10%) |
| 4000 | – | 3000 | 3000 | 6000 | 2000 | – | – | – | – | – | COc1ccc2oc(C(=O)Oc3ccc4cc(C(=N)N)ccc4c3)cc2c1 [compound 17] | 100 | 100 | 95 | 90% | – | – | – | NE (the percentage inhibition is less than 10%) |
| 70 | 2000 | 300 | 200 | 300 | 200 | – | – | – | – | – | N=C(N)c1ccc2cc(OC(=O)c3cccs3)ccc2c1 [compound 22] | 100 | 96 | 58 | 34% | – | – | – | – |
| 700 | 2000 | 300 | < 10 | 400 | – | – | 3000 | – | – | – | Cc1ccc(C(=O)Oc2ccc3cc(C(=N)N)ccc3c2)s1 [compound 23] | 100 | 99 | 95 | 91% | – | – | – | – |
| – | – | – | 6000 | 300 | – | – | – | 31 | < 10 | < 10 | N=C(N)c1ccc2cc(OC(=O)c3ccc[nH]3)ccc2c1 [compound 28] | 88 | 55 | 28 | NE (the percentage inhibition is less than 10%) | – | – | – | NE (the percentage inhibition is less than 10%) |
| – | – | 7000 | 5000 | – | 4000 | 20 | – | 18 | – | – | N=C(N)c1ccc2cc(OC(=O)c3ccccn3)ccc2c1 [compound 45] | 100 | 98 | 75 | 46% | – | – | – | NE (the percentage inhibition is less than 10%) |
| – | – | – | 800 | – | – | 28 | – | 30 | < 10 | 13 | N=C(N)c1ccc2cc(OC(=O)c3ccc([N+](=O)[O-])o3)ccc2c1 [compound 65, 6-amidino-2-naphthyl 5-nitrofuran-2-carboxylate] | 100 | 100 | 89 | 80% | – | – | – | NE (the percentage inhibition is less than 10%) |

| SMILES | IC50 [1] [nM] | IC50 [2] [nM] | IC50 [4] [nM] | IC50 [5] [nM] | IC50 [7] [nM] | IC50 ([9]; TAME hydrolysis) [nM] | inhibition at 10 µM [7] [%] | IC50 [9] [nM] | inhibition at 10 µM [1] [%] | inhibition at 10 µM [4] [%] | inhibition at 10 µM [9] [%] | Inhibition of complement mediated hemolysis ([3]; 1 × 10^-4) [%] | Inhibition of complement mediated hemolysis ([3]; 1 × 10^-5) [%] | Inhibition of complement mediated hemolysis ([3]; 1 × 10^-6) [%] | Inhibition of complement mediated hemolysis ([3]; 1 × 10^-7) | time elapsed until death (survival) in Forssman shock [6] | LD50 ([8]; ip, I.P.) [mg/kg] | LD50 ([8]; po, P.O.) [mg/kg] | percentage inhibition Kallikrein [2] |
| --- | --- | --- | --- | --- | --- | --- | --- | --- | --- | --- | --- | --- | --- | --- | --- | --- | --- | --- | --- |
| COc1ccc(C(=O)Oc2ccc3cc(C(=N)N)ccc3c2)o1 [Compound No. 1, 6-amidino-2-naphthyl 5-methoxy-furan-2-carboxylate] | 60 | 300 | 400 | 10 | 200 | 200 | – | – | – | – | – | 100 | 100 | 98 | 99% | Survival | 200 | 2500 | – |

Reference: patent publication US4634783A, “Novel amidine compound” (Torii & Co. Ltd., priority 1983, dated 1987)
